The results in this text go back to patent publication US20090182028A1, “Plant Components and Extracts and Uses Thereof” (G.I.M. GESELLSCHAFT-FUR INNOVATIVE MEDIZIN G.M.B.H NFG OHG, priority 2006, published 2009).

“Also recorded” adds a separate entry of the source. Where two headings read alike, the source gives them in different places.

What all share (assay type): cell-based
The target of data set [1] is T1, human AhR (Homo sapiens, UniProt P35869).
T1 construct: expressed in transfected cells; host or cells: Saccharomyces cerevisiae strain YCM3 (gift of Charles Miller)
T1 sequence (P35869 11-848): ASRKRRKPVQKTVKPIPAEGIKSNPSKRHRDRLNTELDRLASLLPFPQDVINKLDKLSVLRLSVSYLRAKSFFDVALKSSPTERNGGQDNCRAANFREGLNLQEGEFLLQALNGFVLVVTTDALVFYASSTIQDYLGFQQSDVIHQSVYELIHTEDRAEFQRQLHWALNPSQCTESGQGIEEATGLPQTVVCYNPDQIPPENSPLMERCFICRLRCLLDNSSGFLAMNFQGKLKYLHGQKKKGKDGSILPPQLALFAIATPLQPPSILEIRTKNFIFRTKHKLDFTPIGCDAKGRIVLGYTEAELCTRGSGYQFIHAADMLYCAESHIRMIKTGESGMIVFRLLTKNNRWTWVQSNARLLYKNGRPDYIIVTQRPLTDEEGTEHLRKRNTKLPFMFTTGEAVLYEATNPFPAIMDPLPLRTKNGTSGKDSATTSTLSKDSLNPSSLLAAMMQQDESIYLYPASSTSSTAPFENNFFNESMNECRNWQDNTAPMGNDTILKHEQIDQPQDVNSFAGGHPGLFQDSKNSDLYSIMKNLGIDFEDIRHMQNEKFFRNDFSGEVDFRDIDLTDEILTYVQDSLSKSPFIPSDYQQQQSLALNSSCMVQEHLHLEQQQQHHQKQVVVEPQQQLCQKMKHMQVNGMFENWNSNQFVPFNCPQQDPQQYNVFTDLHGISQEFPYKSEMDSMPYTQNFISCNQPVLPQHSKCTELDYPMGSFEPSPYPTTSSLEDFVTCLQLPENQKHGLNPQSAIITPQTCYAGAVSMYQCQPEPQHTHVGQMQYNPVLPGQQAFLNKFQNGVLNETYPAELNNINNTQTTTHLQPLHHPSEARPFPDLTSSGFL
T1 sequence (P27540 whole entry partner): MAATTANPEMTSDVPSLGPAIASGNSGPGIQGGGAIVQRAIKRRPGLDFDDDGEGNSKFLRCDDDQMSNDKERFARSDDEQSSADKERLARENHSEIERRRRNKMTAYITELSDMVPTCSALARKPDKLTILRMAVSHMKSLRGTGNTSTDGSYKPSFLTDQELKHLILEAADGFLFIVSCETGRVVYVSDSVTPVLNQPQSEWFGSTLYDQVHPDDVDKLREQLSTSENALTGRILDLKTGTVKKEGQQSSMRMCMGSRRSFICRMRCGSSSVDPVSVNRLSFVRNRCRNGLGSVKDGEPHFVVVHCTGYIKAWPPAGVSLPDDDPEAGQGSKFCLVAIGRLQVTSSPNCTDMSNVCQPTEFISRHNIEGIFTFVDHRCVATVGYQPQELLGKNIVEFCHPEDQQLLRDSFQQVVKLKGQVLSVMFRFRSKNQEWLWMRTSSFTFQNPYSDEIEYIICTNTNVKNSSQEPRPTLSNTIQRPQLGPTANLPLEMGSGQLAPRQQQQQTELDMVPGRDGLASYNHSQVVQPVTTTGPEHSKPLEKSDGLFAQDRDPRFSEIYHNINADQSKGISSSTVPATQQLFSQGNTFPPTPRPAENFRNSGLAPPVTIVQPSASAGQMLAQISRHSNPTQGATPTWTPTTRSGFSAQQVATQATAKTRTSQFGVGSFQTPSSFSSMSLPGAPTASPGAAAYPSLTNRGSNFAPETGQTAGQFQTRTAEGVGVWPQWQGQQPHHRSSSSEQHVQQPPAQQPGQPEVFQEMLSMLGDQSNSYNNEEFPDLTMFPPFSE
Briefly: Yeast AhR screen (strain YCM3), assay in plastic tubes. From the text: (§1) The yeast AhR screen is an in-vitro test to detect transactivating potential of substances on the arylhydrocarbon receptor. The recombinant yeast strain YCM3 of Saccharomyces cerevisiae, which was a present of Charles Miller, was used. The assay procedure was essentially as described by Miller. The human AhR and ARNT genes are integrated into chromosome III of the yeast. The galactose-regulated GAL 1, 10 promotor is accountable for the expression of AhR and ARNT in equal shares by induction with galactose, the carbon source of the medium (GOLD medium-trp). If a ligand of the AhR is present, an AhR/ARNT heterodimer is built and can bind to the five xenobiotic response elements of the lacZ-reporter plasmid and induce the expression of the lacZ-gene. Therefore the transcriptional activation of a ligand is quantified via β-galactosidase activity. […] The yeast AhR assay was performed in 50 ml plastic tubes with conical bottom and in microtiterplates.
A colony of YCM3 was transferred in SCM-trp medium and grown to OD600 of about 2.0. For each experiment a new overnight culture was prepared in SCM-trp medium. For this purpose a 1:10 dilution of the YCM3 yeast stock in SCM-trp medium was prepared. After incubation overnight the culture was diluted to an OD600 of 0.4 and grown again to an OD600 of 1.0 to 1.5. For the assay the culture was 1:50 diluted in Gold galactose-trp media, which contains 1.2% galactose as the inductor. 50 μl of test substance (dissolved in DMSO) and 5 ml of this yeast culture were incubated for 17 h at 30° C. while shaking. The tubes have to be in an inclined position for optimal yeast growth. For the blank only 50 μl of DMSO were added to the yeast culture. A calibration curve with β-naphtoflavone was performed within each test run. After incubation cells were collected by centrifugation at 2500 rpm for 5 min. The supernatant was discarded, the pellets were resuspended in 1 ml lacZ-buffer, transferred into 1.5 ml test tubes and centrifuged at 10 000 rpm and 4° C. for 5 min. The supernatant was removed again and the pellets were resuspended in 100 μl lacZ buffer. Disintegration of the yeast cells was performed by vortexing with glass beads (3 times for 30 s with a rest on ice of 15 s between the vortexes). After centrifugation at 10 000 rpm and 4° C. for 10 min, the clear supernatant was used to perform the β-galactosidase and the protein-assay.
For the β-galactosidase-assay 5 μl from each test tube were transferred to a 96-well microtiterplate. 250 μl of a 1:6 diluted o-nitrophenyl-b-galactopyranoside (ONPG)-solution (dilution with lacZ-buffer) were added to each well. The microtiterplate was incubated at 37° C. until a yellow colour had developed. The reaction was stopped by adding 100 μl of 1 M Na2CO3 and the reaction time was noticed. […] Each determination was carried out in duplicates.
For the protein assay a modified method according to Bradford was performed. 5 μl of the supernatant of each test tube were transferred to the microtiterplate and 250 μl of Bio-Rad protein assay reagent (diluted with water 1:10) were added. […] As reference a standard curve with BSA was employed within each test. Each determination was carried out in duplicates.
The expression of β-galactosidase is equivalent to the quantity of the transactivating activity of substances and samples. The specific enzyme activity is expressed in AhR-units, which are the β-galactosidase-activity normalised to the total protein-level. The data were evaluated according Jungbauer et al..
(§2) For evaluation the AhR-units are plotted against the concentration (logarithmic scaling). The resulting curve is fitted using a logistic dose response function. The calculation and fitting was performed with Table Curve 2D software (Jandel Scientific).

For data set [2], the target named is T1, human AhR. Kind of data set: Yeast AhR screen (strain YCM3), assay in microtiterplate.
Source text: as §1
A colony of YCM3 was transferred in SCM-trp medium and grown to OD600 of about 2.0. For each experiment a new overnight culture was prepared in SCM-trp. For this purpose a 1:10 dilution of the YCM3 yeast stock in SCM-trp medium was prepared. After incubation overnight the culture was diluted to an OD600 of 0.4 and grown again to an OD600 of 1.0 to 1.5. For the assay the culture was 1:50 diluted in Gold galactose-trp media, which contains 1.2% galactose as the inductor.
1 μl of test substance (dissolved in DMSO) and 100 μl of the yeast culture in galactose media were transferred in the wells (flat bottom) of a 96-well sterile microtiterplate. Each determination was carried out in duplicates. A calibration curve with β-naphtoflavone was performed within each test run. For better results only the inner part of the plate was used for the assay, because of a greater evaporation in the outer wells (row A and H, column 1 and 12). 150 μl of the diluted yeast culture were transferred into the outer wells. The microtiterplate was incubated for 17 h at 30° C. and while shaking.
The disintegration of the assay was performed with N-lauroylsarcosine, a strong detergent. A related method was described by Kippert, who used 1.5 ml centrifuge tubes and a disintegration with a 0.2% sarcosyl-solution. For the microtiterplate assay a modified version was used and the disintegration was performed via a 0.5% sarcosyl-solution. To circumvent a centrifugation of the plate and a transfer of the supernatant in another plate, what would complicate the assay unnecessarily, the calculation of the AhR-units was related to the optical density of 600 nm, instead of the protein level. A similar proceeding was applied by Adachi et al. and Miller.
After incubation 150 μl Z-Sarcosyl-buffer to each well were added. Then the OD was measured at 600 nm. For complete disintegration of the cells the plate was incubated for 20 min at 30° C. Afterwards 50 μl of ONPG-solution (a 1:6 diluted) were added to each well and incubated at 37° C. until a yellow colour had developed. The reaction was stopped by adding of 50 μl 1 M Na2CO3 and the reaction time was noticed. The absorption was measured at 405 nm (reference wavelength 620 nm).
The results of the β-galactosidase-assay of the AhR screen in microtiterplates were referenced to cell density (measured as the optical cell density at a wavelength of 600 nm). The calculation of the AhR-units is realised as follows:
OD405 and OD600 are the optical densities at a wavelength of 405 nm respectively 600 nm and Δt is the incubation time at 37° C. in minutes.
as §2

The target in data set [3] is T1, human AhR. Briefly: Yeast AhR assay, format (tubes or microtiterplate) not stated.
Source text: as §1, §2
The equivalent concentrations of the extracts and samples were calculated from the logistic dose-response curve of β-naphtoflavone (FIG. 8) and expressed as nmol β-naphtoflavone per g sample or volume of sample.

[4] abbreviates: in plastic tubes, logistic dose response fit.
Where [5] appears, read: in microtiterplate, logistic dose response fit.
The mark [6] stands for this setting: in microtiterplate, logistic dose response fit, read-out: Potency.

For `C[C@]12CC[C@@H]3c4ccc(O)cc4CC[C@H]3[C@@H]1CC[C@@H]2O` [17-β-Estradiol], the “Potency (mol/l)” value on human AhR [1] (setting [4]) was “no activity”.
Take `O=c1cc(-c2ccc(O)cc2)oc2cc(O)cc(O)c12` [Apigenin]: the “Potency (mol/l)” value at human AhR [1] and at human AhR [2] (setting [5]) was “active^c” throughout. In addition, the “transactivation of the AhR (in words)” value on human AhR [1] (pure compounds in DMSO) is “a transactivation took place”.
Regarding `COc1ccc(-c2coc3cc(O)cc(O)c3c2=O)cc1` [Biochanin A], the results for the EC50 at human AhR [1] and at human AhR [2] (setting [6]) were 0.599 µM and 0.125 µM, respectively.
As to `O=C(O)/C=C/c1ccc(O)c(O)c1` [Caffeic acid], the “Potency (mol/l)” value on human AhR [1] (setting [4]) was “no activity”. Also, the “transactivation of the AhR (in words)” value on human AhR [1] (pure compounds in DMSO) was “no activity”.
As to `O=c1oc2cc(O)ccc2c2oc3cc(O)ccc3c12` [Coumestrol], the values for the EC50 on human AhR [1] and on human AhR [2] were 2.09 µM and 1.04 µM, respectively.
`COc1cc(/C=C/C(=O)CC(=O)/C=C/c2ccc(O)c(OC)c2)ccc1O` [Curcumin]: the “Potency (mol/l)” value at human AhR [1] (setting [4]) was “no activity”.
Take `O=c1c(-c2ccc(O)cc2)coc2cc(O)ccc12` [Daidzein]: the “Potency (mol/l)” value on human AhR [1] is “no activity”.
`COc1ccc(-c2cc(=O)c3c(O)cc(O[C@@H]4O[C@H](CO[C@@H]5O[C@@H](C)[C@H](O)[C@@H](O)[C@H]5O)[C@@H](O)[C@H](O)[C@H]4O)cc3o2)cc1O` [Diosmin]: the “Potency (mol/l)” value at human AhR [1] (setting [4]) was “no activity”.
For the compound `Oc1cc(O)c2c(c1)O[C@H](c1ccc(O)c(O)c1)[C@H](O)C2` [Epicatechin], the “Potency (mol/l)” value at human AhR [1] (setting [4]) was “no activity”.
In the case of `Oc1ccc([C@H]2COc3cc(O)ccc3C2)cc1` [Equol], the “Potency (mol/l)” value at human AhR [1] and on human AhR [2] was “active^c” throughout. In addition, at human AhR [1] (pure compounds in DMSO), the “transactivation of the AhR (in words)” value is on record as “a transactivation took place”.
Consider `COc1cc(/C=C/C(=O)O)ccc1O` [Ferulic acid], for which, at human AhR [1] (setting [4]), the “Potency (mol/l)” value was “no activity”. The “transactivation of the AhR (in words)” value at human AhR [1] (pure compounds in DMSO) is “no activity”.
On to `COc1ccc(-c2coc3cc(O)ccc3c2=O)cc1` [Formononetin], for which the EC50 at human AhR [1] was 0.923 µM; at human AhR [2], 0.253 µM; on human AhR [3], 0.12 to 0.92 µM.
As for `O=C(O)c1cc(O)c(O)c(O)c1` [Gallic acid], at human AhR [1], the “Potency (mol/l)” value was “no activity” and the “transactivation of the AhR (in words)” value is reported as “no activity”.
Take `O=c1c(-c2ccc(O)cc2)coc2cc(O)cc(O)c12` [Genistein]: on human AhR [1] (setting [4]), the “Potency (mol/l)” value is “no activity”. Also, on human AhR [1] (pure compounds in DMSO), the “transactivation of the AhR (in words)” value is given as “no transcriptional activity; also recorded: do not activate the AhR”.
As for `OCc1c[nH]c2ccccc12` [Indole-3-carbinol], the EC50 at human AhR [2] and at human AhR [3] was 7 µM in each case.
In the case of `O=C1C[C@@H](c2ccc(O)cc2)Oc2cc(O)cc(O)c21` [Naringenin], the “Potency (mol/l)” value at human AhR [1] (setting [4]) and at human AhR [2] (setting [5]) was “active ^c” each time. At human AhR [1] (pure compounds in DMSO), the “transactivation of the AhR (in words)” value was “a transactivation took place”.
Consider `O=C(CCc1ccc(O)cc1)c1c(O)cc(O)cc1O` [Phloretin], for which the “Potency (mol/l)” value at human AhR [1] (setting [4]) is given as “no activity”.
`CCCCOC(=O)c1ccccc1C(=O)OCCCC` [Phtalic acid dibutyl ester]: the “Potency (mol/l)” value at human AhR [1] was “no activity”.
Take `CC(=O)[C@H]1CC[C@H]2[C@@H]3CCC4=CC(=O)CC[C@]4(C)[C@H]3CC[C@]12C` [Progesteron]: the “Potency (mol/l)” value at human AhR [1] (setting [4]) was “no activity”. In addition, at human AhR [1] (pure compounds in DMSO), the “transactivation of the AhR (in words)” value is recorded as “failed also in transactivating the AhR”.
In the same order, the values of `O=c1c(O)c(-c2ccc(O)c(O)c2)oc2cc(O)cc(O)c12` [Quercetin] are “no activity” and “no activity; also recorded: do not activate the AhR”.
For the compound `COc1ccc(-c2cc(=O)c3c(OC)c(OC)c(OC)c(OC)c3o2)cc1` [Tangeritin], on human AhR [1], the “Potency (mol/l)” value is “no activity” and the “transactivation of the AhR (in words)” value is reported as “no activity”.
In the case of `O=C(Cc1c[nH]c2ccccc12)c1ccco1` [compound “X”, 1-(2-furanyl)2-(3-indolyl)ethanone], on human AhR [3] (preliminary isolate from preparative HPLC), the equivalent concentration is listed as 79 μmol β-naphtoflavone per gram sample.
On to `CC/C(=C(/CC)c1ccc(O)cc1)c1ccc(O)cc1` [diethylstilbestrol], for which the “transactivation of the AhR (in words)” value on human AhR [1] (pure compounds in DMSO) is reported as “failed also in transactivating the AhR”.
For the compound `O=c1cc(-c2ccccc2)oc2ccc3ccccc3c12` [β-Naphtoflavone], the EC50 at human AhR [1] (in plastic tubes, logistic dose response fit, read-out: Potency) was 0.01 µM; at human AhR [2] (setting [6]), 0.28 µM; on human AhR [3] (Example 10 text, read-out: EC50 value of the standard compound), about 0.01 µM; on human AhR [3] (reference standard, read-out: EC50 value), 0.028 µM.
For `CC[C@H](CC[C@@H](C)[C@H]1CC[C@H]2[C@@H]3CC=C4C[C@@H](O)CC[C@]4(C)[C@H]3CC[C@]12C)C(C)C` [β-Sitosterol], the “Potency (mol/l)” value at human AhR [1] (setting [4]) was “no activity”. Also, on human AhR [1] (pure compounds in DMSO), the “transactivation of the AhR (in words)” value is on record as “failed also in transactivating the AhR”.
Take Catechin: the “Potency (mol/l)” value on human AhR [1] (setting [4]) is on record as “no activity”.
